Source: article PMC8126654, “Novel Pan-Pim Kinase Inhibitors With Imidazopyridazine and Thiazolidinedione Structure Exert Potent Antitumor Activities” (Frontiers in Pharmacology, 2021)

Experiments:
FLT3 = target: T1, FLT3 (Homo sapiens, UniProt P36888); assay: FLT3 kinase activity assay (FRET-based Z'-LYTE); type: biochemical; details: ATP 500 µM; read-out: IC50 against FLT3 kinase
T1 construct: purchased Life Technologies; Thermo Fisher Scientific Inc
T1 sequence (P36888 27-993): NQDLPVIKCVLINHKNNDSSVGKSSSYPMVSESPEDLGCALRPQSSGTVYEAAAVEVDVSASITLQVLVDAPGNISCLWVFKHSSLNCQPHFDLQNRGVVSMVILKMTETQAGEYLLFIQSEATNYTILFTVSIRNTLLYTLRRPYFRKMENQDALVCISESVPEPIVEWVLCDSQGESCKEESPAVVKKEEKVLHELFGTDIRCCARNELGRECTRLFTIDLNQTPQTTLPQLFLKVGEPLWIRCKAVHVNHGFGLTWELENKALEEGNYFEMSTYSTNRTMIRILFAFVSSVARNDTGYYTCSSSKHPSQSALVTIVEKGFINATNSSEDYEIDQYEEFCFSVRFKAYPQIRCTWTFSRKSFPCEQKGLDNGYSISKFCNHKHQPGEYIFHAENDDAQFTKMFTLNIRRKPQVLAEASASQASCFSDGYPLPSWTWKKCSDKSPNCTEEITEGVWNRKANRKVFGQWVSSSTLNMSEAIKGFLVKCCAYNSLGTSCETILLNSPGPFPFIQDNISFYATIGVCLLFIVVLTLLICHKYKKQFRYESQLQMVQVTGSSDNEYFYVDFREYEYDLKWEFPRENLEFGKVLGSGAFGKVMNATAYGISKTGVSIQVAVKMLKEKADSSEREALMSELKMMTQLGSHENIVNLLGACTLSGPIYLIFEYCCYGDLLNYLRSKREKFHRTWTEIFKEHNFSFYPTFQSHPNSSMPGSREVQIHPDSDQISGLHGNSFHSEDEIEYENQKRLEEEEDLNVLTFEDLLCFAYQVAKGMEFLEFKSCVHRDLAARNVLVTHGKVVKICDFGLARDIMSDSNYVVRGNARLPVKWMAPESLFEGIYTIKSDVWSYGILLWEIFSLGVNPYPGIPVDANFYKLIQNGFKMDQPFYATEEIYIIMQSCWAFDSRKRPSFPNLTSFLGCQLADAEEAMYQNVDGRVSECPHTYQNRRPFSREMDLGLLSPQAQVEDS
Method: The inhibition ratios of test compounds for Pim-1, 2 (Life Technologies; Thermo Fisher Scientific Inc., MA, United States), 3 (Merck KgaA), and FLT3 (Life Technologies; Thermo Fisher Scientific Inc., MA, United States) were determined using a modified FRET-based Z′-LYTE kinase assay kit (Invitrogen; Thermo Fisher Scientific Inc.). The Ser/Thr 7 peptide and Tyr-2 peptide were used as substrates for Pim kinases and FLT3, respectively. The reactions were carried out in a 384-well plate with a 10 µL reaction volume per well containing 1 µM substrates in 50 mM HEPES buffer with pH 7.5, 0.01% BRIJ-35, 10 mM MgCl2, 1 mM EGTA, and an appropriate amount of kinases (Pim-1: 0.03 μg/ml, Pim-2: 0.2 μg/ml, Pim-3: 0.2 μg/ml, FLT3: 0.1 μg/ml) with test compounds. The final reaction concentrations of ATP were 400, 5, 100, and 500 µM for Pim-1, 2, 3, and FLT3 respectively. After 1 h incubation, reactions were developed and terminated, and fluorescence ratios were calculated following the manufacturer’s protocol.

MV-4-11 = assay: Immunoblot analysis of phosphorylation of Pim kinase substrates, MV-4-11; type: cell-based; details: MV-4-11, 4 h
Method: Cells were plated overnight and then treated with test compounds for 4 hours. Then, the cells were lyzed in solubilization buffer [10 mM Tris-HCl (pH7.4), 0.1% (w/v) NP-40, 0.1% (w/v) sodium deoxycholate, 0.1% (w/v) SDS, 0.15 M NaCl, 1 mM EDTA, 10 µM aprotinin] with phosphatase inhibitor cocktails (Nakarai Tesque, Kyoto, Japan), and subjected to SDS-PAGE using 15% (w/v) gels under reducing conditions. The separated proteins were electrotransferred to Immobilon transfer membranes (Merck Millipore, Darmstadt, Germany). Then, each membrane was reacted with primary antibodies, which were subsequently complexed with appropriate horseradish peroxidase-conjugated secondary antibodies. Signals were detected using the ECL Western Blotting Detection System (GE Healthcare Life Sciences) and protein expression was quantified with a LAS-3000 Luminescent Image Analyzer (GE Healthcare Life Sciences). The protein bands were quantified using ImageQuant TL software (GE Healthcare Life Sciences).

PC-3 = assay: Cell cycle analysis, PC-3; type: cell-based; details: 24 h (DMSO 41%)
Excerpt: After treatment, cells were fixed and stained with propidium iodide using the Cell Cycle Phase Determination kit (Cayman Chemical, Ann Arbor, MI, United States) and analyzed by Guava EasyCyteTM Plus System (Merck Millipore).

HCT116 = assay: Apoptosis assay in HCT116 (Hoechst 33342 nuclear morphology, Cell Death ELISA); type: cell-based
Method: For caspase-3/7 activity assay, the Caspase-Glo 3/7 Assay System (Promega, Madison, WI) was used according to the manufacturer’s protocol. […] The Caspase-Glo 3/7 reagent was then added to each well and incubated for 1 h, and caspase-3/7 activity was measured. […] After treatment, cells were stained in 0.5 μg/ml Hoechst 33342 for 30 min. Subsequently, cell morphology was observed and images were captured from random visual fields using fluorescence microscopy (Biozero BZ-8100, Keyence, Osaka, Japan). […] After treatment, DNA fragmentation was detected using the Cell Death Detection ELISA^PLUS (Roche Applied Science, Mannheim, Germany).

With CN1CCN(c2ccc(-c3cnc4ccc(/C=C5\SC(=O)NC5=O)nn34)cc2)CC1 [YPC-21440, (Z)-5-([3-{4-(4-methylpiperazin-1-yl)phenyl}imidazo[1,2-b]pyridazin-6-yl]methylene)thiazolidine-2,4-dione] the IC50 (FLT3) was 0.39 µM, the “Phosphorylation level of 4EBP” value (MV-4-11) was “decreased” and the “Percentage of cells in G1 phase” value (PC-3; PC-3, 0.3 µM) was 55%. For the same molecule, the “Percentage of cells in G1 phase” value (PC-3; PC-3, 1 µM) was 65%, the Chromatin condensation (HCT116; HCT116, 1 µM, 48 h) was “induced” and the DNA fragmentation (HCT116; HCT116, ≥ 0.3 µM, 24 h) was “induced”.
